Where two headings read alike, the source gives them in different places. *1 amine or outer side, *2 acyl side, *3 side chain or, on linkers, in order; H or OH if unused. Where a SMILES comes first, the peptide text is derived from it. The star is where a group is joined. X2 = CCCCCCCCCCCCC/C=C/[C@@H](O)[C@H](CO)N*; Ibuprofenoyl = CC(C)Cc1ccc(C(C)C(=O)*)cc1; Myristoyl = CCCCCCCCCCCCCC(=O)*; Suc = O=C(CCC(=O)[*:2])[*:1]; Heptanoyl = CCCCCCC(=O)*; Octanoyl = CCCCCCCC(=O)*; Hexanoyl = CCCCCC(=O)*

Type in all cases: cell-based
One assay has as its system C. albicans. The source says: (§1) Table I, which follows, indicates the Minimal Inhibitory Concentration (MIC) in […] of various peptides against S.aureus strain ATCC 25923(S), P. aeruginosa strain ATCC 27853(P), E. coli ATCC strain 25922(E), and C. 4albicans (CA). […] The peptides are unsubstituted at the N-terminal; substituted with an acetyl group at the N-terminal, as indicated by Ac-; substituted with an octanoyl group at the N-terminal, as indicated by Oct-; substituted with spinogosine, as indicated by Sph-; substituted with a succinyl group, as indicated by Suc-; substituted with a hexanoyl group, as indicated by Hex-; substituted with a heptanoyl group, as indicated by Hep-; substituted with a valeryl group, as indicated by Val-; substituted with a myristryl group, as indicated by Myr-; or substituted with an ibuprofyl group, as indicated by Ibu-;
(§2) The procedure for the anti-bacterial assay is based upon the guidelines of the National Committee for Clinical Laboratory Standards, Document M7-T2, Volume 8, No. 8, 1988, which document is entirely incorporated herein by reference.
(§3) Stock solutions of peptides, with and without the appropriate substitutions, were prepared at a concentration of 512 μg/ml in sterile deionized distilled water and stored at −70° C.
(§4) The stock peptide solution was diluted in serial dilutions (1:2) down the wells of a microtiter plate so that the final concentrations of peptides in the wells were 0.25, 0.50, 1, 2, 4, 8, 16, 32, 64, 128 and 256 μg/ml. 1-5×10^5 CFUs/ml of either S. aureus ATCC 25923, E. coli ATCC 25922, P. aeruginosa ATCC 27853, or C. albicans, were added to the wells in full strength Mueller Hinton broth (BBL 11443) from a mid-log culture. The inoculum was standardized spectrophotometrically at 600 nm and was verified by colony counts. The plates were incubated for 16-20 hours at 37° C., and the minimal inhibitory concentration (MIC) for each peptide was determined. Minimal inhibitory concentration is defined as the lowest concentration of peptide which produces a clear well in the microtiter plate. The minimal inhibitory concentration of each of the peptides with and/or without the appropriate substitutions is given in Table I below.

Assay [1] relates to E. coli ATCC strain 25922. Nature of the assay: Minimal Inhibitory Concentration, microtiter broth dilution.
Excerpt: as §1, §2, §3, §4
(§5) The in vitro anti-microbial activities of the methane sulfonate derivatives were determined according to the methods described in Examples 1 and 2. The activities against ATCC strains of S. aureus, E. coli, P. aeruginosa, and C. albicans, and the hemolysis of red blood cells were compared to the parent compound (Table IV). The activities for Compound 843 (Oct-SEQ ID NO:143) methane sulfonate against clinical strains of P. aeruginosa isolated from cystic fibrosis patients were compared to the parent compound (Table V). The activity for Compound 469 (Oct-SEQ ID NO:27) methane sulfonate against P. gingivalis was compared to the parent compound (Table VI).
In general terms: Dilution methods test growth across graded concentrations, often in twofold steps.

The subject of assay [2] is P. aeruginosa strain ATCC 27853. To be noted: ATCC 27853.
Excerpt: as §1, §2, §3, §4, §5

Consider `CCCCCCC(=O)N[C@@H](CC(C)C)C(=O)N[C@@H](CCCCN)C(=O)N[C@@H](CCCCN)C(=O)N[C@@H](CC(C)C)C(=O)N[C@@H](CC(C)C)C(=O)N[C@@H](CCCCN)C(=O)N[C@@H](CCCCN)C(=O)N[C@@H](CC(C)C)C(=O)N[C@@H](CCCCN)C(=O)N[C@@H](CCCCN)C(=O)N[C@@H](CC(C)C)C(N)=O` [Hep-(SEQ ID NO: 110)-NH2] (Heptanoyl-LKKLLKKLKKL-NH2), for which the “Minimal Inhibitory Concentration CA” value with C. albicans was 32 µg/mL. In assay [1] (ATCC strain 25922), the “Minimal Inhibitory Concentration E” value was found to be 16 µg/mL. Also, in assay [2], the “Minimal Inhibitory Concentration P” value was 4 µg/mL.

On to `CCCCCC(=O)N[C@@H](CC(C)C)C(=O)N[C@@H](CCCCN)C(=O)N[C@@H](CCCCN)C(=O)N[C@@H](CC(C)C)C(=O)N[C@@H](CC(C)C)C(=O)N[C@@H](CCCCN)C(=O)N[C@@H](CCCCN)C(=O)N[C@@H](CC(C)C)C(=O)N[C@@H](CCCCN)C(=O)N[C@@H](CCCCN)C(=O)N[C@@H](CC(C)C)C(N)=O` [Hex-(SEQ ID NO: 110)-NH2] (Hexanoyl-LKKLLKKLKKL-NH2), for which the “Minimal Inhibitory Concentration CA” value in the assay on C. albicans came to 64 µg/mL. Further, the “Minimal Inhibitory Concentration E” value in assay [1] (ATCC strain 25922) was determined as 16 µg/mL. Also, the “Minimal Inhibitory Concentration P” value in assay [2] amounted to 8 µg/mL.

In the case of `CCCCCC(=O)N[C@H](C(=O)N[C@@H](C)C(=O)NCC(=O)N[C@@H](C)C(=O)N[C@H](C(=O)N[C@@H](C)C(=O)N[C@@H](CCCCN)C(=O)N[C@H](C(=O)N[C@@H](C)C(=O)NCC(=O)N[C@@H](CCCCN)C(=O)N[C@H](C(=O)N[C@@H](C)C(=O)N[C@@H](CCCCN)C(=O)N[C@H](C(=O)N[C@@H](C)C(=O)NCC(=O)N[C@@H](C)C(=O)N[C@H](C(=O)N[C@@H](C)C(N)=O)[C@@H](C)CC)[C@@H](C)CC)[C@@H](C)CC)[C@@H](C)CC)[C@@H](C)CC)[C@@H](C)CC` [Hex-(SEQ ID NO: 150)-NH2] (Hexanoyl-IAGAIAKIAGKIAKIAGAIA-NH2), the “Minimal Inhibitory Concentration CA” value with C. albicans came out at 128 µg/mL. The “Minimal Inhibitory Concentration E” value in assay [1] (ATCC strain 25922) stood at 32 µg/mL. Moreover, in assay [2], the “Minimal Inhibitory Concentration P” value came to 128 µg/mL.

In the case of `CC[C@H](C)[C@H](NC(=O)[C@H](CCCCN)NC(=O)CNC(=O)[C@H](C)NC(=O)[C@@H](NC(=O)[C@H](CCCCN)NC(=O)[C@H](C)NC(=O)[C@@H](NC(=O)[C@H](CCCCN)NC(=O)CNC(=O)[C@H](C)NC(=O)[C@@H](NC(=O)[C@H](CCCCN)NC(=O)[C@H](C)NC(=O)[C@@H](NC(=O)[C@H](CCCCN)NC(=O)CNC(=O)[C@H](C)NC(=O)[C@@H](NC(=O)[C@H](CCCCN)NC(=O)C(C)c1ccc(CC(C)C)cc1)[C@@H](C)CC)[C@@H](C)CC)[C@@H](C)CC)[C@@H](C)CC)[C@@H](C)CC)C(=O)N[C@@H](C)C(N)=O` (some centres unmarked) [Ibu-(SEQ ID NO: 27)-NH2] (Ibuprofenoyl-KIAGKIAKIAGKIAKIAGKIA-NH2), the “Minimal Inhibitory Concentration CA” value in the assay on C. albicans stood at 128 µg/mL. The “Minimal Inhibitory Concentration E” value in assay [1] (ATCC strain 25922) was determined as 8 µg/mL. Moreover, the “Minimal Inhibitory Concentration P” value in assay [2] is 4 µg/mL.

In the case of `CCCCCCCCCCCCCC(=O)N[C@@H](CC(C)C)C(=O)N[C@@H](CCCCN)C(=O)N[C@@H](CCCCN)C(=O)N[C@@H](CC(C)C)C(=O)N[C@@H](CC(C)C)C(=O)N[C@@H](CCCCN)C(=O)N[C@@H](CCCCN)C(=O)N[C@@H](CC(C)C)C(=O)N[C@@H](CCCCN)C(=O)N[C@@H](CCCCN)C(=O)N[C@@H](CC(C)C)C(N)=O` [Myr-(SEQ ID NO: 110)-NH2] (Myristoyl-LKKLLKKLKKL-NH2), the “Minimal Inhibitory Concentration CA” value with C. albicans was >256 µg/mL. The “Minimal Inhibitory Concentration E” value in assay [1] (ATCC strain 25922) worked out at 16 µg/mL. Moreover, the “Minimal Inhibitory Concentration P” value in assay [2] was determined as 16 µg/mL.

With `CCCCCCCCCCCCCC(=O)N[C@@H](CC(C)C)C(=O)N[C@@H](CCCCN)C(=O)N[C@@H](CCCCN)C(=O)N[C@@H](CC(C)C)C(=O)N[C@@H](CC(C)C)C(=O)N[C@@H](CCCCN)C(=O)N[C@@H](CCC(=O)O)C(=O)N[C@@H](CC(C)C)C(=O)N[C@@H](CC(C)C)C(=O)N[C@@H](CCCCN)C(=O)N[C@@H](CC(C)C)C(N)=O` [Myr-(SEQ ID NO: 151)-NH2] (Myristoyl-LKKLLKELLKL-NH2), the “Minimal Inhibitory Concentration CA” value with C. albicans is >256 µg/mL. The “Minimal Inhibitory Concentration E” value in assay [1] (ATCC strain 25922) is 64 µg/mL. Besides, the “Minimal Inhibitory Concentration P” value in assay [2] worked out at 128 µg/mL.

For `CCCCCCCC(=O)N[C@@H](CC(C)C)C(=O)N[C@@H](CCCCN)C(=O)N[C@@H](CCCCN)C(=O)N[C@@H](CC(C)C)C(=O)N[C@@H](CCCCN)C(=O)N[C@@H](CCCCN)C(=O)N[C@@H](CC(C)C)C(N)=O` [Oct-(SEQ ID NO: 106)-NH2] (Octanoyl-LKKLKKL-NH2), in the assay with C. albicans (C. albicans, Table I), the “Minimal Inhibitory Concentration CA” value was 64,128 μg/ml. In assay [1] (ATCC strain 25922), the “Minimal Inhibitory Concentration E” value was 128 µg/mL. Also, in assay [2], the “Minimal Inhibitory Concentration P” value was 32,64 μg/ml.

With `CCCCCCCC(=O)N[C@@H](CC(C)C)C(=O)N[C@@H](CC(C)C)C(=O)N[C@@H](CCCCN)C(=O)N[C@@H](CCCCN)C(=O)N[C@@H](CC(C)C)C(=O)N[C@@H](CCCCN)C(=O)N[C@@H](CCCCN)C(=O)N[C@@H](CC(C)C)C(N)=O` [Oct-(SEQ ID NO: 107)-NH2] (Octanoyl-LLKKLKKL-NH2), the “Minimal Inhibitory Concentration CA” value in the assay with C. albicans was found to be 128 µg/mL. Moreover, the “Minimal Inhibitory Concentration E” value in assay [1] (ATCC strain 25922) was >256 µg/mL. Moreover, the “Minimal Inhibitory Concentration P” value in assay [2] was found to be 256 µg/mL.

On to `CCCCCCCCCCCCC/C=C/[C@@H](O)[C@H](CO)NC(=O)CCC(=O)N[C@@H](CCCCN)C(=O)N[C@H](C(=O)N[C@@H](C)C(=O)NCC(=O)N[C@@H](CCCCN)C(=O)N[C@H](C(=O)N[C@@H](C)C(=O)N[C@@H](CCCCN)C(=O)N[C@H](C(=O)N[C@@H](C)C(=O)NCC(=O)N[C@@H](CCCCN)C(=O)N[C@H](C(=O)N[C@@H](C)C(=O)N[C@@H](CCCCN)C(=O)N[C@H](C(=O)N[C@@H](C)C(=O)NCC(=O)N[C@@H](CCCCN)C(=O)N[C@H](C(=O)N[C@@H](C)C(N)=O)[C@@H](C)CC)[C@@H](C)CC)[C@@H](C)CC)[C@@H](C)CC)[C@@H](C)CC)[C@@H](C)CC` [Sph-Suc-(SEQ ID NO: 27)-NH2] ({X2-Suc}-KIAGKIAKIAGKIAKIAGKIA-NH2), for which the “Minimal Inhibitory Concentration E” value in assay [1] (ATCC strain 25922) stood at 32 µg/mL. In addition, the “Minimal Inhibitory Concentration P” value in assay [2] is >256 µg/mL.

Turning to “Ac-KIAGKIAKIAGKIAKIAGKIA-NH2 [Ac-(SEQ ID NO: 27)-NH2]”, the “Minimal Inhibitory Concentration E” value in assay [1] (ATCC strain 25922) came out at 8 µg/mL. Also, in assay [2], the “Minimal Inhibitory Concentration P” value turned out to be 128 µg/mL.

Consider “Ac-LKKLLKKLKKL-NH2 [Ac-(SEQ ID NO: 110)-NH2]”, for which, in assay [1] (ATCC strain 25922), the “Minimal Inhibitory Concentration E” value is 32,64 μg/ml. The “Minimal Inhibitory Concentration P” value in assay [2] was 8,16 μg/ml.

Regarding “Ac-LLKKLKKLLKKL-NH2 [Ac-(SEQ ID NO: 113)-NH2]”, the “Minimal Inhibitory Concentration E” value in assay [1] (ATCC strain 25922) came to 64 µg/mL. In addition, in assay [2], the “Minimal Inhibitory Concentration P” value came to 64 µg/mL.

For “H-KIAGKIAKIAGKIAKIAGKIA-OH [(SEQ ID NO: 27)-OH, (Lys Ile Ala Gly Lys Ile Ala)3]”, the “Minimal Inhibitory Concentration E” value in assay [1] (ATCC strain 25922) turned out to be 8 µg/mL. Also, the “Minimal Inhibitory Concentration P” value in assay [2] stood at 128 µg/mL.

“H-LKKLLKKLKKL-NH2 [(SEQ ID NO: 110)-NH2]”: the “Minimal Inhibitory Concentration E” value in assay [1] (E. coli ATCC strain 25922, Table I) is on record as 64,128 μg/ml. In addition, in assay [2], the “Minimal Inhibitory Concentration P” value is 32,64 μg/ml.

Consider “H-LLKKLKKLLKKL-NH2 [(SEQ ID NO: 113)-NH2]”, for which, in assay [1] (ATCC strain 25922), the “Minimal Inhibitory Concentration E” value amounted to 32 µg/mL. Moreover, the “Minimal Inhibitory Concentration P” value in assay [2] is on record as 8,16 μg/ml.

The values are drawn from patent publication US6348445B1, “Biologically active peptides with reduced toxicity in animals and a method for preparing same” (priority 1992, dated 2002).
